Reference: US12570923B2, “Tuning sulfonation and controlling oleo-furan surfactant compositions” (SIRONIX RENEWABLES, INC., priority 2021, dated 2026)

How the values were obtained:
Format in all cases: physicochemical
[1] = Critical micelle concentration
Method: (§1) Certain surfactant properties and performance metrics of synthesized surfactants structures according to General Structure 1 (GS1), including several exemplary surfactant blends prepared according to the methods disclosed previously herein, were measured. […] For example, the α-OMFS-12-1/O surfactant with a sulfonate on the surfactant's alkyl chain provides faster wetting kinetics, as compared to the ring sulfonate 4-OMFS-12-1/O which has slower fabric wetting kinetics yet generates more foam in high shear conditions, or the disulfonate surfactant sulfonated on both the ring and alkyl chain (4,α-OMFS-12-1/O) which has slower fabric wetting and generates less foam than either of the aforementioned monosulfonates surfactants, yet has a higher solubility that can be helpful in building product formulations. Accordingly, these differing performance metrics can be leveraged by selecting the particular disclosed surfactant structure corresponding to the performance metrics useful in a specific application of the surfactant structure.

[2] = Surface tension at critical micelle concentration; settings: at CMC
Method: as §1

[3] = Solubility in deionized water; settings: deionized water at 20° C.
Method: Certain surfactant properties and performance metrics of synthesized surfactants structures according to General Structure 1 (GS1), including several exemplary surfactant blends prepared according to the methods disclosed previously herein, were measured.

[4] = Krafft point (temperature below which the surfactant forms a solid precipitate)
Method: as §1

CCCCCCCCCCC(C(=O)c1cc(S(=O)(=O)O)c(C)o1)S(=O)(=O)O.N.N (stereo not drawn) [NH4^+4,α-OMFS-12-1/0]
CMC (critical micelle concentration) [1]: 3545 ppm | Surface Tension at critical micelle concentration [2]: 39 mN/m | Solubility [3]: 500 mg/mL | Krafft Point [4]: <0 °C

CCCCCCCCCCC(C(=O)c1cc(S(=O)(=O)[O-])c(C)o1)S(=O)(=O)[O-].[Na+].[Na+] (stereo not drawn) [Na^+ 4,α-OMFS-12-1/0]
Solubility [3]: 900 mg/mL | Krafft Point [4]: <0 °C

CCCCCCCCCCCCC(C(=O)c1cc(S(=O)(=O)[O-])c(C)o1)S(=O)(=O)[O-].[Na+].[Na+] (stereo not drawn) [Na^+ 4,α-OMFS-14-1/0]
Solubility [3]: 600 mg/mL | Krafft Point [4]: <0 °C

CCCCCCCCCCCCCCCCC(C(=O)c1cc(S(=O)(=O)[O-])c(C)o1)S(=O)(=O)[O-].[Na+].[Na+] (stereo not drawn) [Na^+ 4,α-OMFS-18-1/0]
Krafft Point [4]: <0 °C

CCCCCCCCCCCC(=O)c1cc(S(=O)(=O)[O-])c(C)o1.[Na+] [Na^+ 4-OMFS-12-1/0]
CMC (critical micelle concentration) [1]: 1480 ppm | Surface Tension at critical micelle concentration [2]: 42 mN/m | Solubility [3]: 800 mg/mL | Krafft Point [4]: <0 °C

CCCCCCCCCCC(C(=O)c1ccc(C)o1)S(=O)(=O)[O-].[Na+] (stereo not drawn) [Na^+ α-OMFS-12-1/0]
Solubility [3]: 800 mg/mL | Krafft Point [4]: <0 °C
